Biological target: T1, Recombinant human JARID1B/KDM5B (Homo sapiens, UniProt Q9UGL1)
T1 construct: purchased Active Motif 31432; host or cells: Sf9 insect cells
Test: LANCE Ultra TR-FRET JARID1B (KDM5B) demethylase inhibition assay
Format: biochemical
Conditions: 0.1 uM of test-compounds, FLAG-JARID1B, 500 nM biotinylated H3K4me3 peptide substrate, 30 min at room temperature
In short: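 FLAG-tagged JARID1B from Sf9 cells, pre-incubated 5 min with 0.1 uM compound (1% DMSO), then 500 nM biotinylated H3K4me3 peptide, 500 uM 2-OG, 25 uM Fe(II), 2 mM ascorbate in pH 7.5 Hepes buffer. After 30 min at room temperature, H3K4me2/1 product detected by TR-FRET (665/590 nm ratio).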

T1 sequence (Q9UGL1 whole entry): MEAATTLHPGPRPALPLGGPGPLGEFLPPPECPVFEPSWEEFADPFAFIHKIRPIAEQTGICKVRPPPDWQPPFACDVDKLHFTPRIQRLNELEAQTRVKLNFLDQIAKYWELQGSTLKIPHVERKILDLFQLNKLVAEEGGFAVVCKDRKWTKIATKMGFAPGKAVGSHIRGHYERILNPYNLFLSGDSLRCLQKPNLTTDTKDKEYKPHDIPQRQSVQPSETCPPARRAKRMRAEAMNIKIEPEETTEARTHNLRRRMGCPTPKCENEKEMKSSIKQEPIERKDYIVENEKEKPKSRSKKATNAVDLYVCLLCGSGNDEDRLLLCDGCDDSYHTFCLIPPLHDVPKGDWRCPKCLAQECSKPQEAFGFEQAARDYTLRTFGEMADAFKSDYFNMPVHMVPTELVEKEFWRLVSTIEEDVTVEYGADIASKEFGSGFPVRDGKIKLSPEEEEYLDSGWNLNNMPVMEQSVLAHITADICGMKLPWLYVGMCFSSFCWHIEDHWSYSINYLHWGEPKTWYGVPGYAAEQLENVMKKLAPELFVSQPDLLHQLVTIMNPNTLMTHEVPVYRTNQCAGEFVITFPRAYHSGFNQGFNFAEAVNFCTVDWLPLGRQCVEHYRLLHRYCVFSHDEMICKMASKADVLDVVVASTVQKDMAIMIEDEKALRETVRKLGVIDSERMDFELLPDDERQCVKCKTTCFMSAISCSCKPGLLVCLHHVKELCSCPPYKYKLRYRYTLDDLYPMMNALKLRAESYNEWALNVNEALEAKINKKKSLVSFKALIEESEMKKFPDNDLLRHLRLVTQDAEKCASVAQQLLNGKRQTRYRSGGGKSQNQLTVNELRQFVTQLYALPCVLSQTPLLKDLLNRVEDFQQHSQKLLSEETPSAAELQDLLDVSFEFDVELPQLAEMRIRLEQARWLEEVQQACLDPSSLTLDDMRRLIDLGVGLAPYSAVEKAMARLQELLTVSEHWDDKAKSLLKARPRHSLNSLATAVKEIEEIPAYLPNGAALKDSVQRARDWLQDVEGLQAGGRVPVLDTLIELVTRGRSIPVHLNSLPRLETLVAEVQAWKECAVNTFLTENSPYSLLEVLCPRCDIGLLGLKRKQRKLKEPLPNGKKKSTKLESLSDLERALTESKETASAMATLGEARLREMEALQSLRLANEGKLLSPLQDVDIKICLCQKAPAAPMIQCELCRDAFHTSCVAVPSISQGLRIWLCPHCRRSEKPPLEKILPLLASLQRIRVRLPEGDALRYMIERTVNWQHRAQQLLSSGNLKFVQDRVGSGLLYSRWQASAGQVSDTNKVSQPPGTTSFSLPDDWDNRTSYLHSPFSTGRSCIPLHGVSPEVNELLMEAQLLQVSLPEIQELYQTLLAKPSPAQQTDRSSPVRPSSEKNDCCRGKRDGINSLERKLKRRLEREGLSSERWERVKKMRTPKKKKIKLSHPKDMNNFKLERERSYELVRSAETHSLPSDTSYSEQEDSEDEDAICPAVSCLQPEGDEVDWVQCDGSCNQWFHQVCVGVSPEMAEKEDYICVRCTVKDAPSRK

| inhibition at 0.1 µM | SMILES |
| --- | --- |
| < 20% | O=c1[nH]c(COc2cc(F)cc(F)c2)nc2c(-c3csc(NCCO)n3)nccc12 [Compound 129, 2-((3,5-difluorophenoxy)methyl)-8-(2-((2-hydroxyethyl)amino)thiazol-4-yl)pyrido[3,4-d]pyrimidin-4(3H)-one] |
| 20 to 50% | O=c1[nH]c(COc2ccccc2Cl)nc2c(-c3csc(NCCO)n3)nccc12 [Compound 132, 2-((2-chlorophenoxy)methyl)-8-(2-((2-hydroxyethyl)amino)thiazol-4-yl)pyrido[3,4-d]pyrimidin-4(3H)-one] |
| 20 to 50% | O=c1[nH]c(COc2cccc(Cl)c2)nc2c(-c3csc(NCCO)n3)nccc12 [Compound 133, 2-((3-chlorophenoxy)methyl)-8-(2-((2-hydroxyethyl)amino)thiazol-4-yl)pyrido[3,4-d]pyrimidin-4(3H)-one] |
| 20 to 50% | O=c1[nH]c(COc2cc(Cl)cc(Cl)c2)nc2c(-c3csc(NCCO)n3)nccc12 [Compound 134, 2-((3,5-dichlorophenoxy)methyl)-8-(2-((2-hydroxyethyl)amino)thiazol-4-yl)pyrido[3,4-d]pyrimidin-4(3H)-one] |
| 20 to 50% | O=c1[nH]c(COc2ccc(Cl)cc2Cl)nc2c(-c3csc(NCCO)n3)nccc12 [Compound 135, 2-((2,4-dichlorophenoxy)methyl)-8-(2-((2-hydroxyethyl)amino)thiazol-4-yl)pyrido[3,4-d]pyrimidin-4(3H)-one] |
| ≥ 50% | O=c1[nH]c(COc2ccc(Cl)c(Cl)c2)nc2c(-c3csc(NCCO)n3)nccc12 [Compound 136, 2-((3,4-dichlorophenoxy)methyl)-8-(2-((2-hydroxyethyl)amino)thiazol-4-yl)pyrido[3,4-d]pyrimidin-4(3H)-one] |
| < 20% | O=c1[nH]c(Cc2ccccc2)nc2c(-c3csc(NCCO)n3)nccc12 [Compound 139, 2-benzyl-8-(2-((2-hydroxyethyl)amino)thiazol-4-yl)pyrido[3,4-d]pyrimidin-4(3H)-one] |
| 20 to 50% | O=c1[nH]c(COCc2ccccc2)nc2c(-c3csc(NCCO)n3)nccc12 [Compound 142, 2-((benzyloxy)methyl)-8-(2-((2-hydroxyethyl)amino)thiazol-4-yl)pyrido[3,4-d]pyrimidin-4(3H)-one] |
| 20 to 50% | O=c1[nH]c(COc2cccc(-c3ccccc3)c2)nc2c(-c3csc(NCCO)n3)nccc12 [Compound 156, 2-(([1,1′-biphenyl]-3-yloxy)methyl)-8-(2-((2-hydroxyethyl)amino)thiazol-4-yl)pyrido[3,4-d]pyrimidin-4(3H)-one] |
| < 20% | O=c1[nH]c(COc2ccc(C3CCCC3)cc2)nc2c(-c3csc(NCCO)n3)nccc12 [Compound 159, 2-((4-cyclopentylphenoxy)methyl)-8-(2-((2-hydroxyethyl)amino)thiazol-4-yl)pyrido[3,4-d]pyrimidin-4(3H)-one] |

Continued, molecule first:

| SMILES | inhibition at 0.1 µM |
| --- | --- |
| CN(C)CCNc1nc(-c2nccc3c(=O)[nH]c(COc4cc(F)cc(F)c4)nc23)cs1 [Compound 130, 2-((3,5-difluorophenoxy)methyl)-8-(2-((2-(dimethylamino)ethyl)amino)thiazol-4-yl)pyrido[3,4-d]pyrimidin-4(3H)-one] | ≥ 50% |
| CN1CCC(Nc2nc(-c3nccc4c(=O)[nH]c(COc5cc(F)cc(F)c5)nc34)cs2)CC1 [Compound 131, 2-((3,5-difluorophenoxy)methyl)-8-(2-((1-methylpiperidin-4-yl)amino)thiazol-4-yl)pyrido[3,4-d]pyrimidin-4(3H)-one] | ≥ 50% |
| Cc1nc2c(-c3csc(NCCO)n3)nccc2c(=O)[nH]1 [Compound 137, 8-(2-((2-hydroxyethyl)amino)thiazol-4-yl)-2-methylpyrido [3,4-d]pyrimidin-4(3H)-one] | < 20% |
| CC(C)c1nc2c(-c3csc(NCCO)n3)nccc2c(=O)[nH]1 [Compound 138, 8-(2-((2-hydroxyethyl)amino)thiazol-4-yl)-2-isopropylpyrido[3,4-d]pyrimidin-4(3H)-one] | < 20% |
| CN(C)CCNc1nc(-c2nccc3c(=O)[nH]c(Cc4ccccc4)nc23)cs1 [Compound 140, 2-benzyl-8-(2-((2-(dimethylamino)ethyl)amino)thiazol-4-yl)pyrido[3,4-d]pyrimidin-4(3H)-one] | 20 to 50% |
| CC(c1ccccc1)c1nc2c(-c3csc(NCCO)n3)nccc2c(=O)[nH]1 (stereo not shown) [Compound 141, 8-(2-((2-hydroxyethyl)amino)thiazol-4-yl)-2-(1-phenylethyl)pyrido[3,4-d]pyrimidin-4(3H)-one] | < 20% |
| CCC(O)CNc1nc(-c2nccc3c(=O)[nH]c(COCc4ccccc4)nc23)cs1 (stereo not shown) [Compound 143, 2-((benzyloxy)methyl)-8-(2-((2-hydroxybutyl)amino)thiazol-4-yl)pyrido[3,4-d]pyrimidin-4(3H)-one] | 20 to 50% |
| O=c1[nH]c(COCc2ccccc2)nc2c(-c3csc(NC4CCN(Cc5ccccc5)CC4)n3)nccc12 [Compound 144, 2-((benzyloxy)methyl)-8-(2-((1-benzylpiperidin-4-yl)amino)thiazol-4-yl)pyrido[3,4-d]pyrimidin-4(3H)-one] | < 20% |
| O=c1[nH]c(COCc2ccccc2)nc2c(-c3csc(NCC4CCN(Cc5ccccc5)CC4)n3)nccc12 [Compound 145, 2-((benzyloxy)methyl)-8-(2-(((1-benzylpiperidin-4-yl)methyl)amino)thiazol-4-yl)pyrido[3,4-d]pyrimidin-4(3H)-one] | < 20% |
| COCCNc1nc(-c2nccc3c(=O)[nH]c(COCc4ccccc4)nc23)cs1 [Compound 146, 2-((benzyloxy)methyl)-8-(2-((2-methoxyethyl)amino)thiazol-4-yl)pyrido[3,4-d]pyrimidin-4(3H)-one] | < 20% |
| O=c1[nH]c(COCc2ccccc2)nc2c(-c3csc(NCCCO)n3)nccc12 [Compound 147, 2-((benzyloxy)methyl)-8-(2-((3-hydroxypropyl)amino)thiazol-4-yl)pyrido[3,4-d]pyrimidin-4(3H)-one] | < 20% |
| CN(C)CCNc1nc(-c2nccc3c(=O)[nH]c(COCc4ccccc4)nc23)cs1 [Compound 148, 2-((benzyloxy)methyl)-8-(2-((2-(dimethylamino)ethyl)amino)thiazol-4-yl)pyrido[3,4-d]pyrimidin-4(3H)-one] | < 20% |
| NCCNc1nc(-c2nccc3c(=O)[nH]c(COCc4ccccc4)nc23)cs1 [Compound 149, 8-(2-((2-aminoethyl)amino)thiazol-4-yl)-2-((benzyloxy)methyl)pyrido [3,4-d]pyrimidin-4(3H)-one] | 20 to 50% |
| CN(C)CCCNc1nc(-c2nccc3c(=O)[nH]c(COCc4ccccc4)nc23)cs1 [Compound 150, 2-((benzyloxy)methyl)-8-(2-((3-(dimethylamino)propyl)amino)thiazol-4-yl)pyrido[3,4-d]pyrimidin-4(3H)-one] | < 20% |
| CN1CCN(CCNc2nc(-c3nccc4c(=O)[nH]c(COCc5ccccc5)nc34)cs2)CC1 [Compound 151, 2-((benzyloxy)methyl)-8-(2-((2-(4-methylpiperazin-1-yl)ethyl)amino)thiazol-4-yl)pyrido[3,4-d]pyrimidin-4(3H)-one] | < 20% |
| CN1CCCC1CCNc1nc(-c2nccc3c(=O)[nH]c(COCc4ccccc4)nc23)cs1 (stereo not shown) [Compound 152, 2-((benzyloxy)methyl)-8-(2-((2-(1-methylpyrrolidin-2-yl)ethyl)amino)thiazol-4-yl)pyrido[3,4-d]pyrimidin-4(3H)-one] | < 20% |
| O=c1[nH]c(COCc2ccccc2)nc2c(-c3csc(NCC4CCN(CCO)CC4)n3)nccc12 [Compound 153, 2-((benzyloxy)methyl)-8-(2-(((1-(2-hydroxyethyl)piperidin-4-yl)methyl)amino)thiazol-4-yl)pyrido[3,4-d]pyrimidin-4(3H)-one] | < 20% |
| COCCN1CCC(CNc2nc(-c3nccc4c(=O)[nH]c(COCc5ccccc5)nc34)cs2)CC1 [Compound 154, 2-((benzyloxy)methyl)-8-(2-(((1-(2-methoxyethyl)piperidin-4-yl)methyl)amino)thiazol-4-yl)pyrido[3,4-d]pyrimidin-4(3H)-one] | < 20% |
| CN1CCC(Nc2nc(-c3nccc4c(=O)[nH]c(COCc5ccccc5)nc34)cs2)CC1 [Compound 155, 2-((benzyloxy)methyl)-8-(2-((1-methylpiperidin-4-yl)amino)thiazol-4-yl)pyrido[3,4-d]pyrimidin-4(3H)-one] | 20 to 50% |
| O=c1[nH]c(COc2ccc(Oc3ccccc3)cc2)nc2c(-c3csc(NCCO)n3)nccc12 [Compound 157, 8-(2-((2-hydroxyethyl)amino)thiazol-4-yl)-2-((4-phenoxyphenoxy)methyl) pyrido[3,4-d]pyrimidin-4(3H)-one] | < 20% |
| CC(C)(c1ccccc1)c1ccc(OCc2nc3c(-c4csc(NCCO)n4)nccc3c(=O)[nH]2)cc1 [Compound 158, 8-(2-((2-hydroxyethyl)amino)thiazol-4-yl)-2-((4-(2-phenylpropan-2-yl)phenoxy)methyl)pyrido [3,4-d]pyrimidin-4(3H)-one] | < 20% |
| O=C(c1ccccc1)c1ccc(OCc2nc3c(-c4csc(NCCO)n4)nccc3c(=O)[nH]2)cc1 [Compound 160, 2-((4-benzoylphenoxy)methyl)-8-(2-((2-hydroxyethyl)amino)thiazol-4-yl)pyrido[3,4-d]pyrimidin-4(3H)-one] | 20 to 50% |
| O=c1[nH]c(CCc2ccccc2)nc2c(-c3csc(NCCO)n3)nccc12 [Compound 161, 8-(2-((2-hydroxyethyl)amino)thiazol-4-yl)-2-phenethylpyrido[3,4-d]pyrimidin-4(3H)-one] | 20 to 50% |
| CN(C)CCNc1nc(-c2nccc3c(=O)[nH]c(CCc4ccccc4)nc23)cs1 [Compound 162, 8-(2-((2-(dimethylamino)ethyl)amino)thiazol-4-yl)-2-phenethylpyrido[3,4-d]pyrimidin-4(3H)-one] | 20 to 50% |
